Reference: US12636285B2 (ViiV Healthcare Company, priority 2019, dated 2026)
Where a name gives a salt, the structure may show the parent alone.

Tests used:
[1] = Drug interaction studies with oral rilpivirine
Solubility in water = type: physicochemical
Source text: The cabotegravir tablet contains cabotegravir, as cabotegravir sodium. […] The tablet film-coating contains hypromellose, polyethylene glycol, and titanium dioxide.

[2] = Drug interaction studies with oral cabotegravir; conditions: cabotegravir 30 mg once daily; No Effect = 1.00
[3] = Established and other potentially significant drug interactions (Table 5); conditions: trial-based or predicted
[4] = rilpivirine 150 mg once daily, No Effect = 1.00
[5] = rilpivirine 25 mg once daily, No Effect = 1.00
[6] = rilpivirine 75 mg once daily, No Effect = 1.00

Molecule: CC(C)c1c(C(=O)Nc2ccc(O)cc2)c(-c2ccccc2)c(-c2ccc(F)cc2)n1CC[C@@H](O)C[C@@H](O)CC(=O)O [4-hydroxy-atorvastatin]
- Geometric Mean Ratio of coadministered drug AUC with/without EDURANT [1, 4]: 1.23
- Geometric Mean Ratio of coadministered drug Cmax with/without EDURANT [1, 4]: 1.28

Molecule: CO[C@H]1/C=C/O[C@@]2(C)Oc3c(C)c(O)c4c(O)c(c(/C=N/N5CCN(C)CC5)c(O)c4c3C2=O)NC(=O)/C(C)=C\C=C\[C@H](C)[C@H](O)[C@@H](C)[C@@H](O)[C@@H](C)[C@H](O)[C@@H]1C [25-desacetylrifampin]
- Geometric Mean Ratio of coadministered drug AUC with/without EDURANT [1, 4]: 0.91
- Geometric Mean Ratio of coadministered drug Cmax with/without EDURANT [1, 4]: 1.00

Molecule: CC(=O)Nc1ccc(O)cc1 [Acetaminophen]
- Geometric Mean Ratio of coadministered drug AUC with/without EDURANT [1, 4]: 0.91
- Geometric Mean Ratio of coadministered drug Cmax with/without EDURANT [1, 4]: 0.97

Molecule: C[C@H]1CO[C@@H]2Cn3cc(C(=O)NCc4ccc(F)cc4F)c(=O)c(O)c3C(=O)N12 [Cabotegravir sodium]
- solubility in water (Solubility in water): slightly soluble

Molecule: O=c1[nH]cnc2c1ncn2[C@H]1CC[C@@H](CO)O1 [Didanosine]
- Geometric Mean Ratio of coadministered drug AUC with/without EDURANT [1, 4]: 1.12
- Geometric Mean Ratio of coadministered drug Cmax with/without EDURANT [1, 4]: 0.96

Molecule: C[C@H]1O[C@@H](O[C@H]2[C@@H](O)C[C@H](O[C@H]3[C@@H](O)C[C@H](O[C@H]4CC[C@@]5(C)[C@H](CC[C@@H]6[C@@H]5C[C@@H](O)[C@]5(C)[C@@H](C7=CC(=O)OC7)CC[C@]65O)C4)O[C@@H]3C)O[C@@H]2C)C[C@H](O)[C@@H]1O [Digoxin]
- Geometric Mean Ratio of coadministered drug AUC with/without EDURANT [1, 5]: 0.98
- Geometric Mean Ratio of coadministered drug Cmax with/without EDURANT [1, 5]: 1.06

Molecule: C#C[C@]1(O)CC[C@H]2[C@@H]3CCc4cc(O)ccc4[C@H]3CC[C@@]21C [Ethinyl estradiol]
- Geometric Mean Ratio of coadministered drug AUC with/without EDURANT [1, 5]: 1.14
- Geometric Mean Ratio of coadministered drug Cmax with/without EDURANT [1, 5]: 1.17
- Geometric Mean Ratio of coadministered drug Cmin with/without EDURANT [1, 5]: 1.09
- Geometric Mean Ratio of AUC of coadministered drug with/without cabotegravir [2]: 1.02
- Geometric Mean Ratio of Cmax of coadministered drug with/without cabotegravir [2]: 0.92
- Geometric Mean Ratio of Cτ or C24 of coadministered drug with/without cabotegravir [2]: 1.00

Molecule: CC(=O)N1CCN(c2ccc(OCC3COC(Cn4ccnc4)(c4ccc(Cl)cc4Cl)O3)cc2)CC1 (stereo not drawn) [Ketoconazole]
- Geometric Mean Ratio of coadministered drug AUC with/without EDURANT [1, 4]: 0.76
- Geometric Mean Ratio of coadministered drug Cmax with/without EDURANT [1, 4]: 0.85
- Geometric Mean Ratio of coadministered drug Cmin with/without EDURANT [1, 4]: 0.34

Molecule: C#C[C@]1(O)CC[C@H]2[C@@H]3CCC4=CC(=O)CC[C@@H]4[C@H]3CC[C@@]21CC [Levonorgestrel]
- Geometric Mean Ratio of AUC of coadministered drug with/without cabotegravir [2]: 1.12
- Geometric Mean Ratio of Cmax of coadministered drug with/without cabotegravir [2]: 1.05
- Geometric Mean Ratio of Cτ or C24 of coadministered drug with/without cabotegravir [2]: 1.07

Molecule: CN(C)C(=N)N=C(N)N [Metformin]
- Geometric Mean Ratio of coadministered drug AUC with/without EDURANT [1, 5]: 0.97
- Geometric Mean Ratio of coadministered drug Cmax with/without EDURANT [1, 5]: 1.02

Molecule: CCC(=O)C(CC(C)N(C)C)(c1ccccc1)c1ccccc1 (stereo not drawn) [Methadone]
- rilpivirine Cmin with/without coadministered drug ([1]; rilpivirine 25 mg once daily, comparison based on historic controls): ↔^b
- Effect on Concentration ([3]; with narcotic analgesic methadone): ↓Methadone

Molecule: Cc1ncc2n1-c1ccc(Cl)cc1C(c1ccccc1F)=NC2 [Midazolam]
- Geometric Mean Ratio of AUC of coadministered drug with/without cabotegravir [2]: 1.10
- Geometric Mean Ratio of Cmax of coadministered drug with/without cabotegravir [2]: 1.09

Molecule: CCCc1nn(C)c2c(=O)[nH]c(-c3cc(S(=O)(=O)N4CCNCC4)ccc3OCC)nc12 [N-desmethyl-sildenafil]
- Geometric Mean Ratio of coadministered drug AUC with/without EDURANT [1, 6]: 0.92
- Geometric Mean Ratio of coadministered drug Cmax with/without EDURANT [1, 6]: 0.90

Molecule: C#C[C@]1(O)CC[C@H]2[C@@H]3CCC4=CC(=O)CC[C@@H]4[C@H]3CC[C@@]21C [Norethindrone]
- Geometric Mean Ratio of coadministered drug AUC with/without EDURANT [1, 5]: 0.89
- Geometric Mean Ratio of coadministered drug Cmax with/without EDURANT [1, 5]: 0.94
- Geometric Mean Ratio of coadministered drug Cmin with/without EDURANT [1, 5]: 0.99

Molecule: Cc1nnc(C(=O)NC(C)(C)c2nc(C(=O)NCc3ccc(F)cc3)c(O)c(=O)n2C)o1 [Raltegravir]
- Geometric Mean Ratio of coadministered drug AUC with/without EDURANT [1, 5]: 1.09
- Geometric Mean Ratio of coadministered drug Cmax with/without EDURANT [1, 5]: 1.10
- Geometric Mean Ratio of coadministered drug Cmin with/without EDURANT [1, 5]: 1.27

Molecule: CO[C@H]1/C=C/O[C@@]2(C)Oc3c(C)c(O)c4c(c3C2=O)C2=NC3(CCN(CC(C)C)CC3)NC2=C(NC(=O)/C(C)=C\C=C\[C@H](C)[C@H](O)[C@@H](C)[C@@H](O)[C@@H](C)[C@H](OC(C)=O)[C@@H]1C)C4=O [Rifabutin]
- Effect on Concentration ([3]; with antimycobacterial rifabutin): ↔Rifabutin

Molecule: CO[C@H]1/C=C/O[C@@]2(C)Oc3c(C)c(O)c4c(O)c(c(/C=N/N5CCN(C)CC5)c(O)c4c3C2=O)NC(=O)/C(C)=C\C=C\[C@H](C)[C@H](O)[C@@H](C)[C@@H](O)[C@@H](C)[C@H](OC(C)=O)[C@@H]1C [Rifampin]
- Geometric Mean Ratio of coadministered drug AUC with/without EDURANT [1, 4]: 0.99
- Geometric Mean Ratio of coadministered drug Cmax with/without EDURANT [1, 4]: 1.02

Molecule: CCCc1nn(C)c2c(=O)[nH]c(-c3cc(S(=O)(=O)N4CCN(C)CC4)ccc3OCC)nc12 [Sildenafil]
- Geometric Mean Ratio of coadministered drug AUC with/without EDURANT [1, 6]: 0.97
- Geometric Mean Ratio of coadministered drug Cmax with/without EDURANT [1, 6]: 0.93

Molecule: CC(C)OC(=O)OCOP(=O)(CO[C@H](C)Cn1cnc2c(N)ncnc21)OCOC(=O)OC(C)C [Tenofovir disoproxil fumarate]
- Geometric Mean Ratio of coadministered drug AUC with/without EDURANT [1, 4]: 1.23
- Geometric Mean Ratio of coadministered drug Cmax with/without EDURANT [1, 4]: 1.19
- Geometric Mean Ratio of coadministered drug Cmin with/without EDURANT [1, 4]: 1.24

Molecule: Lopinavir/ritonavir
- Geometric Mean Ratio of coadministered drug AUC with/without EDURANT [1, 4]: 0.99
- Geometric Mean Ratio of coadministered drug Cmax with/without EDURANT [1, 4]: 0.96
- Geometric Mean Ratio of coadministered drug Cmin with/without EDURANT [1, 4]: 0.89
- Geometric Mean Ratio of rilpivirine AUC with/without coadministered drug [1, 4]: 0.99
- Geometric Mean Ratio of rilpivirine Cmax with/without coadministered drug [1, 4]: 0.96
- Geometric Mean Ratio of rilpivirine Cmin with/without coadministered drug [1, 4]: 0.89
